Earlier results as cited in publication PMC10866072, “Design, synthesis, molecular modelling and biological evaluation of novel 6-amino-5-cyano-2-thiopyrimidine derivatives as potent anticancer agents against leukemia and apoptotic inducers” (Journal of Enzyme Inhibition and Medicinal Chemistry, 2024).
pIC50: −log10 of the molar value.

What was measured:
MGC-803 cell line = system: MGC-803 cell line; design: method as in PMID 27771599; conditions: cited from earlier work
GES1 = system: GES1; design: method as in PMID 27771599; conditions: cited from earlier work

In the case of `C/C(=N\Nc1nc(Sc2ccccc2)nc2c1nnn2-c1ccccc1)c1ccccc1O` [XXII], the pIC50 (MGC-803 cell line) is given as 6.06 and the pIC50 (GES1) is given as 4.25.
